Results reported in ChEMBL document CHEMBL5576074, “[1,2,4]Triazolo[1,5-a]pyrimidine derivatives: Structure-activity relationship study leading to highly selective ENPP1 inhibitors” (Bioorg Med Chem Lett, 2024).

What was measured:
[1] = biological target: T1, Glycerophosphocholine cholinephosphodiesterase ENPP6 (Homo sapiens, UniProt Q6UWR7); assay: Inhibition of ENPP6 (unknown origin)
T1 sequence (Q6UWR7 whole entry): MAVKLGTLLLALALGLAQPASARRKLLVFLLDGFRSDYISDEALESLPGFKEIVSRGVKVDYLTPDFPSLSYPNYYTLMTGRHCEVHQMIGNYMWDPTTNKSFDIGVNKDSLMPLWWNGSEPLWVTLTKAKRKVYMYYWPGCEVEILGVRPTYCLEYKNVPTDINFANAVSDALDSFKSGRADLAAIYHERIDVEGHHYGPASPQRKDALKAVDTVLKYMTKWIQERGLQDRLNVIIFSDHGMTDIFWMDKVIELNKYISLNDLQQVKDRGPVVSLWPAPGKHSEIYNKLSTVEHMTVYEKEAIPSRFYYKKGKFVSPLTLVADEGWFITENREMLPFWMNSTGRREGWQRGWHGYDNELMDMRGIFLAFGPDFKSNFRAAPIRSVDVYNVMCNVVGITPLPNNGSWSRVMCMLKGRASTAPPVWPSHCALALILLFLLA

[2] = biological target: T2, Ectonucleotide pyrophosphatase/phosphodiesterase family member 3 (Homo sapiens) (UniProt O14638); assay: Inhibition of ENPP3 (unknown origin) at 50 uM relative to control
T2 sequence (whole entry): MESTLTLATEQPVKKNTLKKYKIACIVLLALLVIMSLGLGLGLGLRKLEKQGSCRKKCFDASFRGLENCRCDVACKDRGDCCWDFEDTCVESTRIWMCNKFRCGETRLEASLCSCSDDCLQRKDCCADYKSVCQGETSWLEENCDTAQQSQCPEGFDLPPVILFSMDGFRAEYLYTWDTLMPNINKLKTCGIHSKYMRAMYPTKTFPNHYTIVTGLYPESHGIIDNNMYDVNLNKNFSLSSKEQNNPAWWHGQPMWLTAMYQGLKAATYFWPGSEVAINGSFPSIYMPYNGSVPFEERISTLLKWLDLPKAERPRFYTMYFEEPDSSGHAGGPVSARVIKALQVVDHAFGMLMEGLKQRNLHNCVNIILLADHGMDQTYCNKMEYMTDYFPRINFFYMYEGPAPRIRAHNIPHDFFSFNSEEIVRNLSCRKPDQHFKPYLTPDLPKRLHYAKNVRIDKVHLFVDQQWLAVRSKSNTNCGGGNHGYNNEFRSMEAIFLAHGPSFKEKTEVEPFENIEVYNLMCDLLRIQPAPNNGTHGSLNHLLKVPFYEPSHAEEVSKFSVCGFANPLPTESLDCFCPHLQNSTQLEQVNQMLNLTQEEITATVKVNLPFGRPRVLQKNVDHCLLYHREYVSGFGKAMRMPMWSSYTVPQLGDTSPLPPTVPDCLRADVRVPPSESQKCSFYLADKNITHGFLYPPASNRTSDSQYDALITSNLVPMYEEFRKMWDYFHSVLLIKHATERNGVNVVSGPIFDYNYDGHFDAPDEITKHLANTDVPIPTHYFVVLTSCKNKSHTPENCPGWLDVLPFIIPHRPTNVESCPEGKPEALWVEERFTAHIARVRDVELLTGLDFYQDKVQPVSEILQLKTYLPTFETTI

Autotaxin [3] = biological target: T3, Autotaxin (Homo sapiens, UniProt Q13822); assay: Inhibition of ENPP2 (unknown origin) at 50 uM relative to control
[4] = biological target: T4, Glycerophosphocholine cholinephosphodiesterase ENPP6 (Homo sapiens) (UniProt Q6UWR7); assay: Inhibition of ENPP6 (unknown origin) at 50 uM relative to control
T4 sequence (whole entry): T1 sequence (Q6UWR7 whole entry)

[5] = biological target: T5, Ectonucleotide pyrophosphatase/phosphodiesterase family member 1 (Homo sapiens, UniProt P22413); assay: Inhibition of ENPP1 (unknown origin)
T5 sequence (P22413 whole entry): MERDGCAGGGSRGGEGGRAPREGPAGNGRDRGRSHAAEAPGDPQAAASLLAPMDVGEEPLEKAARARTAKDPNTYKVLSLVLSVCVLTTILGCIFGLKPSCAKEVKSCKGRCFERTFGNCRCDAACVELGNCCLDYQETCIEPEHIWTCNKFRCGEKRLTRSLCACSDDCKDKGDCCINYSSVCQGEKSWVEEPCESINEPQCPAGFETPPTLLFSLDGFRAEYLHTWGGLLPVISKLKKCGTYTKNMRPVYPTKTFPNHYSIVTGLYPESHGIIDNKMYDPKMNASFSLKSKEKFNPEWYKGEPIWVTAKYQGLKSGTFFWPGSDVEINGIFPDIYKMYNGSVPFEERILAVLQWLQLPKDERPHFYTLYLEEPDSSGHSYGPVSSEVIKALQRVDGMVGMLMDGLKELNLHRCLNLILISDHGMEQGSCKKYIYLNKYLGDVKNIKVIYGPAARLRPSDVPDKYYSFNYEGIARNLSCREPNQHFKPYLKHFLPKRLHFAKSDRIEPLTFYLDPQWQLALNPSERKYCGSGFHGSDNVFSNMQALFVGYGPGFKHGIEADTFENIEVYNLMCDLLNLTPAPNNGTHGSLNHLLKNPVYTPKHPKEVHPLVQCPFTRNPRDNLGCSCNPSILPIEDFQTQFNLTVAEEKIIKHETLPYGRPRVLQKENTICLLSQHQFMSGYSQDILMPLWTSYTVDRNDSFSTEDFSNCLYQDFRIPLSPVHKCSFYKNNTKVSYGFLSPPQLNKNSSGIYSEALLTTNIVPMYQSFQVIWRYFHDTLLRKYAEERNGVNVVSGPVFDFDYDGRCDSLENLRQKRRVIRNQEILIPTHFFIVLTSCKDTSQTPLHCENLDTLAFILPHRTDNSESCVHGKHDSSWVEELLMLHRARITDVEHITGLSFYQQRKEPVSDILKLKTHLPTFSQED

[6] = biological target: T6, Ectonucleotide pyrophosphatase/phosphodiesterase family member 3 (Homo sapiens, UniProt O14638); assay: Inhibition of ENPP3 (unknown origin)
T6 sequence (O14638 whole entry): T2 sequence (whole entry)

Autotaxin [7] = biological target: T3, Autotaxin; assay: Inhibition of ENPP2 (unknown origin)

| Compound | IC50 [1] | inhibition [2] | inhibition (Autotaxin [3]) | inhibition [4] | IC50 [5] | IC50 [6] | IC50 (Autotaxin [7]) |
| --- | --- | --- | --- | --- | --- | --- | --- |
| Cc1nc2ncnn2c(NCc2cccnc2)c1Cc1cccc(N)c1 | > 50 µM | 12% | < 1% | < 1% | 7 µM | > 50 µM | > 50 µM |
| CCCNc1c(Cc2ccccc2)c(C)nc2ncnn12 | > 50 µM | 5.2% | 12% | 3.8% | 32 µM | > 50 µM | > 50 µM |
| Cc1nc2ncnn2c(N(C)C)c1Cc1ccc(Cl)cc1 | > 50 µM | 1.5% | 4.9% | 2% | 5.7 µM | > 50 µM | > 50 µM |
| Cc1nc2ncnn2c(N(C)C)c1Cc1cccc(-c2ccccc2)c1 | > 50 µM | 5.9% | 6.1% | < 1% | 21 µM | > 50 µM | > 50 µM |
| CC(=O)Nc1cccc(Cc2c(C)nc3ncnn3c2N(C)C)c1 | > 50 µM | 3% | < 1% | < 1% | 2.3 µM | > 50 µM | > 50 µM |
| CNc1c(Cc2ccccc2)c(C)nc2ncnn12 | > 50 µM | 10% | < 1% | < 1% | > 30 µM | > 50 µM | > 50 µM |
| CCNc1c(Cc2ccccc2)c(C)nc2ncnn12 | > 50 µM | 7% | 7.8% | < 1% | 22 µM | > 50 µM | > 50 µM |
| Cc1nc2nc(SCC(=O)O)nn2c(N(C)C)c1Cc1ccccc1 | > 50 µM | < 1% | < 1% | < 1% | > 30 µM | > 50 µM | > 50 µM |
| Cc1nc2ncnn2c(NCCCC(=O)O)c1Cc1cccc(N)c1 | > 50 µM | 11% | 22% | 3.7% | 11 µM | > 50 µM | > 50 µM |
| COc1ccc(Cc2c(C)nc3ncnn3c2N(C)C)cc1OC | > 50 µM | 4.6% | 6.8% | < 1% | 1.3 µM | > 50 µM | > 50 µM |
| CC(=O)Nc1ccc(Cc2c(C)nc3ncnn3c2N(C)C)cc1 | > 50 µM | 8.5% | 5.1% | 2.3% | 4.9 µM | > 50 µM | > 50 µM |
| Cc1nc2ncnn2c(N(C)Cc2ccccc2)c1Cc1cccc(N)c1 | > 50 µM | < 1% | < 1% | < 1% | > 30 µM | > 50 µM | > 50 µM |
| COCCNc1c(Cc2ccccc2)c(C)nc2ncnn12 | > 50 µM | 3.3% | < 1% | < 1% | > 30 µM | > 50 µM | > 50 µM |
| Cc1nc2ncnn2c(NCc2ccccc2)c1Cc1cccc(N)c1 | > 50 µM | 11% | < 1% | < 1% | 9 µM | > 50 µM | > 50 µM |
| Cc1nc2ncnn2c(N(C)C)c1Cc1ccccc1[N+](=O)[O-] | > 50 µM | 6.8% | 4.7% | < 1% | 3.1 µM | > 50 µM | > 50 µM |

Continued, values first:

| IC50 [1] | inhibition [2] | inhibition (Autotaxin [3]) | inhibition [4] | IC50 [5] | IC50 [6] | IC50 (Autotaxin [7]) | Compound |
| --- | --- | --- | --- | --- | --- | --- | --- |
| > 50 µM | < 1% | 5.5% | < 1% | > 30 µM | > 50 µM | > 50 µM | CCCN(CCC)c1c(Cc2ccccc2)c(C)nc2ncnn12 |
| > 50 µM | 3.7% | < 1% | < 1% | > 30 µM | > 50 µM | > 50 µM | Cc1nc2ncnn2c(N(C)C)c1CC1CCCCC1 |
| > 50 µM | 3.6% | < 1% | < 1% | 23 µM | > 50 µM | > 50 µM | Cc1nc2ncnn2c(N(C)C)c1CCc1ccccc1 |
| > 50 µM | 2.7% | < 1% | < 1% | 21 µM | > 50 µM | > 50 µM | Cc1nc2ncnn2c(N(C)C)c1Cc1ccc([N+](=O)[O-])cc1 |
| > 50 µM | < 1% | 1.9% | < 1% | > 30 µM | > 50 µM | > 50 µM | CCN(CC)c1c(Cc2ccccc2)c(C)nc2ncnn12 |
| > 50 µM | 24% | 1.4% | < 1% | > 30 µM | > 50 µM | > 50 µM | C#CCNc1c(Cc2ccccc2)c(C)nc2ncnn12 |
| > 50 µM | 4.3% | 11% | < 1% | 3.6 µM | > 50 µM | > 50 µM | Cc1nc2ncnn2c(N(C)C)c1Cc1cccc([N+](=O)[O-])c1 |
| > 50 µM | 10% | < 1% | < 1% | 28 µM | > 50 µM | > 50 µM | Cc1cc(N(C)C)n2ncnc2n1 |
| > 50 µM | 5.1% | < 1% | 2.1% | > 30 µM | > 50 µM | > 50 µM | Cc1cc(O)n2ncnc2n1 |
| > 50 µM | 6.3% | 14% | < 1% | 1.5 µM | > 50 µM | > 50 µM | Cc1nc2ncnn2c(N(C)C)c1Cc1cccc(F)c1 |
| > 50 µM | 2.4% | < 1% | < 1% | > 30 µM | > 50 µM | > 50 µM | Cc1nc2ncnn2c(O)c1Cc1ccccc1 |
| > 50 µM | 4.3% | < 1% | < 1% | > 30 µM | > 50 µM | > 50 µM | Cc1nc2ncnn2c(NCCO)c1Cc1ccccc1 |
